Data taken from patent EP4364731A1, “COMPOSITION FOR USE IN THE TREATMENT OF DISRUPTED NASAL MUCOSA AND EPITHELIAL BARRIER” (Laboratorios Cinfa, S.A., priority 2022, dated 2024).

Experiments:
Assay type in all cases: cell-based
[1] = tested on: Human Nasal Epithelial Cells (HNEpC); experiment: Proliferation assay (MTT); conditions: Epithelial cell, 24 hours
Procedure: (§1) In vitro studies were performed to assess the proliferation and re-epithelialization activity of compositions containing hyaluronic acid and xylitol as individual components and in combination. Three independent trials were carried out with 4 replicates per experimental trial.
(§2) Solutions in basal culture medium of hyaluronic acid (HA, White powder,CAS number 9067-32-7, MW: 1000-1400 kDa, Givaudan France SAS xylitol (Xyl,. White crystalline powder, CAS number 87-99-0 Roquette) or combinations of hyaluronic acid and xylitol at different concentrations were tested.
(§3) Human Nasal Epithelial Cells (HNEpC) from a primary cell line isolated from normal human nasal mucosa were purchased form PromoCell (ref: C-12620). The cell line was maintained in supplemented culture medium according to the supplier guidelines and was routinely grown as a monolayer in tissue culture grade flasks. When cells exceeded 70% confluence (but less than 90%), they were sub-cultured on new culture flasks. All the cell cultures were maintained in standard cell culture conditions (37 °C, 5% CO2 and 95% humidity).
MTT, a yellow tetrazole, is reduced to purple formazan by cell metabolic activity. This reduction is proportional to the amount of living cells in the well and, therefore, to cell proliferation over time. Cells cultured in 96-well plates were treated with the test compositions for 24 hours (37 °C, 5% CO2). After 24 hours of incubation, cells were washed with PBS and stained with MTT solution and incubated at 37 °C for 2 hours. At the end of this incubation period, the staining medium was removed and 100 µL of DMSO/well were added to solubilize the colored precipitate. The absorbance was read at 540 nm in the spectrophotometer plate reader. The cell proliferation percentage was calculated relative to the negative control, a condition in which cells were not treated with any product. Cells with treatments and negative control were cultured with basal medium. As positive control, cells were cultured in supplemented medium. The % of cell proliferation was calculated by the following formula: • % proliferation = AbT/AbC x 100 • AbT = absorbance at 540 nm after 24 hours of treatment • AbC = absorbance at 540 nm of the negative control (24 hours of cells growing in basal medium)

[2] = tested on: Human Nasal Epithelial Cells (HNEpC); experiment: Re-epithelialization (scratch) assay; conditions: 0.5% compound separately (FIG. 2)
Procedure: as §1, §2
as §3, with “All the cell cultures were maintained in standard cell culture conditions (37 °C, 5% CO2 and 95% humidity).” left out
Cells were seeded in both sides of inserts attached on culture wells and were incubated in supplemented medium at 37 °C and 5% CO2. […] The area of the scratch was calculated using ImageJ software. The percentage of scratch closure (re-epithelialization percentage) was calculated relative to the negative control, a condition in which cells were not treated with any product. […]

[3] = in vitro; conditions: human, nasal epithelial cells
Source text: Regarding hyaluronic acid, insolubility at concentrations above 0.5% w/v prevented the testing of higher concentrations. As for xylitol, a high in vitro cytotoxicity at concentrations above 0.5% w/v prevented the testing of higher concentrations.

MCC [3]: > 5000 µg/mL
Compound: OC[C@@H](O)[C@H](O)[C@@H](O)CO [Xyl, xylitol]
activation at 0.125 % ([1]; 0.125% compound alone, read-out: increase of cell proliferation in relation to negative control): 0%
activation at 0.5 % ([1]; 0.5% compound alone, read-out: increase of cell proliferation in relation to negative control): 0%
activity at 0.125 % strength ([1]; basal medium, relative to negative control (100%), compound concentration 0.125 %w/v): 99.9%
activity at 0.5 % strength ([1]; basal medium, relative to negative control (100%), compound concentration 0.5 %w/v): 98.2%
scratch closure after 72 hours of exposure [2]: did not
